Measured values published in patent US10112918B2, “15-oxospiramilactone derivatives, preparation method and uses thereof” (Kunming Institute of Botany, The Chinese Academy of Sciences, priority 2013, dated 2018).
Read-outs that look alike come from different tables or passages of the source. Blank lines part the entries; values can stand above or below the molecule they belong to.

Key:
Assay type in all cases: cell-based
[1] = tested on: HL-60 (human promyelocytic leukemia cells); assay: MTT inhibition of tumor cell growth, HL-60; details: Homo sapiens
Method: (§1) 1. Inoculating cells: the culture medium DMEM or RMPI1640 containing 10% fetal bovine serum was used to prepare a single cell suspension, and the cell suspension was inoculated to a 96-well plate at 5000-10000 cells per well (100 μl for each well); Adherent cells were inoculated and cultured for 12 h in advance. HL-60 (human promyelocytic leukemia cells), SMMC-7721 (human hepatoma cells), A-549 (Human lung adenocarcinoma cells), MCF-7 (human breast cancer cells), SW-480 (human colon cancer cells) were purchased from the Cell Bank of the Chinese Academy of Sciences, Shanghai.
(§2) 2. The solution of the compound to be tested (40 μM for primary screening; 5 concentrations were set for gradient re-screening for the compounds which achieve about 50% inhibition of tumor cell growth at 40 μM) was added, the final volume of each well was 200 μl, and triplicate wells were set for each test.
(§3) 3. Coloration: After culturing at 37° C. for 48 h, MTT solution (20 μl) was added to each well. After incubation for another 4 h, the culture was stopped. The supernatant in each well was pipetted and discarded, and 200 μl SDS solution (10%) was added to each well. Incubation was performed overnight (at 37° C.), to completely dissolve the crystal.
(§4) 4. Colorimetric assay: ELISA Reader (Bio-Rad 680) was used to obtain the light absorption for each well at a wavelength of 595 nm, the results were recorded. A cell growth curve was plotted with the concentration as abscissa and the cell survival percentage as ordinate. The two-point method (Reed and Muench method) was used to calculate the IC50 of the compound.

[2] = tested on: SMMC-7721 (human hepatoma cells); assay: MTT inhibition of tumor cell growth, SMMC-7721; details: Homo sapiens
Method: as §1, §2, §3, §4

[3] = tested on: A-549 (Human lung adenocarcinoma cells); assay: MTT inhibition of tumor cell growth, A-549; details: Homo sapiens
Method: as §1, §2, §3, §4

[4] = tested on: MCF-7 (human breast cancer cells); assay: MTT inhibition of tumor cell growth, MCF-7; details: Homo sapiens
Method: as §1, §2, §3, §4

[5] = tested on: SW-480 (human colon cancer cells); assay: MTT inhibition of tumor cell growth, SW-480; details: Homo sapiens
Method: as §1, §2, §3, §4

[6] = tested on: Wnt signaling pathway (Top-Flash reporter gene); assay: Top-Flash Wnt reporter gene assay in HEK293T cells with Wnt3a conditioned medium; details: Homo sapiens, HEK-293T, 6 h
Method: HEK293T cells were cultured in DMEM containing 10% fetal bovine serum (Invitrogen) at 37° C., 5% CO2. The cells were passaged every other day. The density was retained at 70˜80% during passage. L cell line (CRL-2647, purchased from the gene bank of ATCC, the US) and the control cell line (CRL-2648, purchased from ATCC, US), which stably secreted mouse Wnt3a protein, were cultured in DMEM containing 50 ug/ml G418 and 10% fetal bovine serum, at 37° C., 5% CO2. When the cells grew to a density of about 70%, the medium was replaced with DMEM containing 10% fetal bovine serum. After continuous culture for 4 days, the culture was collected and centrifuged, and the supernatant was kept so that the Wnt conditioned medium was obtained. After titration assay, the conditioned medium was quick-frozen in liquid nitrogen, and placed at −80° C. for long-term storage, so that the titer was kept unchanged.
The cells were seeded to a 48-well plate at a density of […] cells per well, and transfected 20 h later. The reagents for plasmid transfection were calculated based on the amount in each well of the 48-well plate as following: the total amount of plasmid was 125 ng/well; the plasmid was first added to a serum-free medium (25 μL/well) and mixed well; PLUS reagent (Invitrogen) was then added in an amount of 0.5 μL/well and mixed well, then stood for 15 min; Lipofectamine (Invitrogen) liposome was added in an amount of 0.5 μL/well to serum-free DMEM medium (25 μL/well), and then mixed with the solution containing the plasmid and the PLUS, and stood for 15 min. The cells were cultured in serum-free DMEM medium (100 μL/well), and the final mixture of plasmid, PLUS and Lipofectamine were added to the cells. After incubation for 3 h, the transfection was stopped by the medium containing 10% fetal bovine serum (200 μL/well).
The HEK293T cells used for activity assay of the report gene were transfected by the method as shown in 2). Activity assay of Wnt reporter gene: the amount of plasmid for transfection was 5 ng/well for TOP-flash and 5 ng/well for GFP plasmid as internal standard, with lacZ added to reach a total amount of 125 ng/well. […] After treating for 6 h, Boehringer Mannheim Luci-ferase Assay Kit was used to lyse cells (200 μL/well). 50 μL from each well was pipetted into a 96-well plate. The indensity of GFP protein in the cell lysate was measured by fluorimeter FL600 (BIO-TEK Inc. Winooski, Vt.), and taken as internal standard for cell transfection efficiency. 10 μL substrate of luciferase was then added to each well, and the activity of luciferase was measured by Micro Lumate Plus (Perkin Elmer Inc. Wellesley, Mass.) luminometer. Finally, GFP indensity was used as internal standard to calibrate the activity of luciferase, i.e. the activity of Wnt reporter gene.
Calculation of IC50 (taking the calculation of IC50 of the Wnt signaling pathway for example): background (the activity as measured in the groups treated with a conditioned medium containing DMSO only) was subtracted from the reporter gene activity as measured in the groups treated by Wnt3a conditioned medium with or without the compound to be tested at different concentrations; and the obtained value was defined as the activity of the reporter gene induced by Wnt or the residual activity of the reporter gene after adding the compound to be tested. The residual activity was normalized by the activity induced by Wnt to get the relative residual activity. Then combine with the concentrations of the compound to be tested to plot a linear graph, and a dose-effect curve was fitted based on 4-parameter logistic fit. IC50 of the Wnt signaling pathway is determined as the concentration at which the relative residual activity is 0.5.

[7] = HL-60, 48 h, Table 2, derivatives having potential Michael reaction acceptor
[8] = SMMC-7721, 48 h, Table 2, derivatives having potential Michael reaction acceptor
[9] = A549, 48 h, Table 2, derivatives having potential Michael reaction acceptor
[10] = MCF7, 48 h, Table 2, derivatives having potential Michael reaction acceptor
[11] = SW480, 48 h, Table 2, derivatives having potential Michael reaction acceptor, read-out: IC50 SW-480
[12] = Table 9, HEK293T, Wnt3a conditioned medium, read-out: IC50(μM), inhibitory activity on the Wnt signaling pathway

SMILES: C=C1C(=O)C23CC[C@H]1CC2[C@@]12CCC[C@@](C)(COC1=O)C2C[C@H]3OC(=O)c1cccs1 (stereo partly shown) [Compound 1o]
IC50 ([1]; HL-60, Table 1, 7-hydroxy derivatives of S-3, 48 h): 0.84 µM
IC50 ([2]; SMMC-7721, Table 1, 7-hydroxy derivatives of S-3, 48 h): 0.6 µM
IC50 ([3]; A549, Table 1, 7-hydroxy derivatives of S-3, 48 h): 0.49 µM
IC50 ([4]; MCF7, Table 1, 7-hydroxy derivatives of S-3, 48 h): 1.26 µM
IC50 ([5]; SW480, Table 1, 7-hydroxy derivatives of S-3, 48 h, read-out: IC50 SW-480): 0.56 µM
IC50 ([6]; read-out: IC50 (μM), inhibitory activity on the Wnt signaling pathway): 9.15 ± 1.14 µM

SMILES: C=C1C(=O)[C@@]23CC[C@@H](CC2[C@@]24CCC[C@@](C)(COC2=O)C14)C(=C)C3=O (stereo partly shown) [Compound 8]
IC50 ([1]; HL-60, 48 h, Table 5, derivatives having double Michael reaction acceptor): 2.02 µM
IC50 ([2]; SMMC-7721, 48 h, Table 5, derivatives having double Michael reaction acceptor): 0.72 µM
IC50 ([3]; A549, 48 h, Table 5, derivatives having double Michael reaction acceptor): 0.59 µM
IC50 ([4]; MCF7, 48 h, Table 5, derivatives having double Michael reaction acceptor): 0.96 µM
IC50 ([5]; SW480, 48 h, Table 5, derivatives having double Michael reaction acceptor, read-out: IC50 SW-480): 0.66 µM
IC50 ([5]; SW480, 48 h, Table 6, double Michael reaction acceptor derivatives, read-out: IC50 SW-480, derivatives having double Michael reaction acceptor): 0.45 µM
IC50 [6, 12]: 4.09 ± 0.07 µM

SMILES: C=C1C(=O)C23CC[C@H]1CC2[C@@]12CCC[C@@](C)(COC1=O)C2C[C@H]3OS(=O)(=O)Cc1ccccc1 (stereo partly shown) [Compound 1r]
IC50 ([1]; HL-60, 48 h, Table 1, 7-hydroxy derivatives of S-3): 0.58 µM
IC50 ([2]; SMMC-7721, 48 h, Table 1, 7-hydroxy derivatives of S-3): 0.57 µM
IC50 ([3]; A549, 48 h, Table 1, 7-hydroxy derivatives of S-3): 0.49 µM
IC50 ([4]; MCF7, 48 h, Table 1, 7-hydroxy derivatives of S-3): 2.06 µM
IC50 ([5]; SW480, 48 h, Table 1, 7-hydroxy derivatives of S-3, read-out: IC50 SW-480): 1.17 µM
IC50 ([6]; Table 7 (second), derivatives modified on 7-hydroxyl of S-3, HEK293T, Wnt3a conditioned medium, read-out: IC50 (μM), inhibitory activity on the Wnt signaling pathway): 8.92 ± 0.98 µM

Further lines, results first:

IC50 [1, 7]: 3.82 µM
IC50 [2, 8]: 1.96 µM
IC50 [3, 9]: 3.03 µM
IC50 [4, 10]: 2.63 µM
IC50 [5, 11]: 2.38 µM
IC50 [6, 12]: 20.1 ± 1.32 µM
SMILES: C=C1C(=O)[C@]23CC[C@H]1CC2[C@@]12CCC[C@@](C)(COC1=O)C2[C@H](Cl)C3=O (stereo partly shown) [Compound 14]

IC50 [1, 7]: 6.5 µM
IC50 [2, 8]: 14 µM
IC50 [3, 9]: 11 µM
IC50 [4, 10]: 12.8 µM
IC50 [5, 11]: 15.5 µM
IC50 [6, 12]: 58.2 ± 1.18 µM
SMILES: C=C1C(=O)C23CC[C@H]1CC2[C@]1(COC(C)=O)CCC[C@@](C)(COC(C)=O)C1[C@H](COS(C)(=O)=O)C3=O (stereo partly shown) [Compound 49]

IC50 [1, 7]: 3.45 µM
IC50 [2, 8]: 3.12 µM
IC50 [3, 9]: 2.22 µM
IC50 [4, 10]: 2.02 µM
IC50 [5, 11]: 1.58 µM
IC50 ([6]; Table 10, HEK293T, Wnt3a conditioned medium, read-out: IC50 (μM), inhibitory activity on the Wnt signaling pathway): 19.8 ± 1.04 µM
SMILES: C=C1C(=O)[C@]23CC[C@H]1CC2[C@@]12CCC[C@@](C)(COC1)C2[C@H](COS(C)(=O)=O)C3=O (stereo partly shown) [Compound 32]
